Like-named read-outs stand apart in the source and are kept apart here.
What was measured:
[1] = Peripheral blood leukocytes formula under Cyclophosphamide; format: in vivo, mice; conditions: day 3 post CPH
Source text: (§1) Two groups of mice are used.

[2] = format: in vivo, mice
Source text: as §1

[3] = Total leukocyte number in peripheral blood under Cyclophosphamide

O=P1(N(CCCl)CCCl)NCCCO1 (centres unmarked) [CPH, Cyclophosphamide]
Myelocytes ([1]; CPH 200 mg/kg (Dicarbamine group: 0.5 mg/kg 5 days prior and 5 days after)): 0%
Monocytes [1]: 4.649%
Myelocytes [1]: 0 in mm^3
Cellularity of bone marrow (number of cells) ([2]; CPH 200 mg/kg (Dicarbamine group: 0.5 mg/kg 5 days prior and 5 days after), day 3): 8.2 ± 1.65 millions
Cellularity of bone marrow (number of cells) ([2]; day 5 after CPH): 13.05 ± 2.75 millions
Cellularity of bone marrow (number of cells) ([2]; day 7 after CPH): 25.22 ± 2.75 millions
Cellularity of bone marrow (number of cells) ([2]; day 10 after CPH): 27.9 ± 2.75 millions
Cellularity of bone marrow (number of cells) ([2]; day 13 after CPH): 30.15 ± 6.6 millions
Cellularity of bone marrow (number of cells) ([2]; day 17 after CPH): 25.0 ± 3.16 millions
Cellularity of bone marrow (number of cells) ([2]; day 21 after CPH): 26.55 ± 4.53 millions
Total leukocyte number ([3]; CPH 200 mg/kg, day 5): 4.38 ± 0.77 thousand in mm^3
Total leukocyte number ([3]; CPH 200 mg/kg, day 7): 10.50 ± 3.02 thousand in mm^3
Total leukocyte number ([3]; CPH 200 mg/kg, day 10): 6.44 ± 0.60 thousand in mm^3
Total leukocyte number ([3]; CPH 200 mg/kg, day 13): 12.20 ± 3.02 thousand in mm^3
Total leukocyte number ([3]; CPH 200 mg/kg, day 17): 12.20 ± 1.80 thousand in mm^3
Total leukocyte number ([3]; CPH 200 mg/kg, day 21): 11.86 ± 1.32 thousand in mm^3
Total leukocyte number ([3]; single CPH 200 mg/kg (Dicarbamine group: 0.5 mg/kg daily 5 days before and 5 days after), day 3 post CPH): 1.06 ± 0.44 thousand in mm^3

Reference: patent publication US7759313B2, “Induction method for cell differentiation” (Obschetstvo S Ogranichennoi Otvetstvennostiyu …, priority 2002, dated 2010)
